The values below are quoted from earlier work in patent US20260069581A1, “METHODS AND COMPOSITIONS FOR CANCER THERAPY” (OHIO STATE INNOVATION FOUNDATION, priority 2020, published 2026).

Broadly, the GI50 is the concentration that inhibits growth by half.

The structures appear in SMILES notation.

In data set [1] the test system is Rad51. The settings on record: Ref. 33; cited from earlier work.
Data set [2] has as its system tubulin acetylation. The settings on record: concentration as high as 50 μM, Ref. 25; cited from earlier work.
Data set [3] has as its system AML. As to conditions: low micromolar doses, Ref. 25; cited from earlier work.
Data set [4] concerns cell lines derived from T-cell lymphomas or leukemias. The settings on record: Ref. 25, cited from earlier work.
Data set [5] relates to prostate cancer and lung adenocarcinoma cells. As to conditions: Ref. 32; cited from earlier work.

In the case of `CN(C)Cc1c(C(=O)NCCOc2ccc(C(=O)NO)cc2)oc2ccccc12` [PCI-2481], the Rad51 expression result in data set [1] is reported as “reduction of Rad51 expression”.

For the molecule `COc1ccc(Cn2ccc3ccc(C(=O)NO)cc32)cc1` [PCI-34051], in data set [2], the tubulin acetylation result is on record as “did not induce significant tubulin acetylation”. The AML death entry in data set [3] is listed as “failed to induce AML death”. Also, the apoptosis entry in data set [4] is “induces caspase-dependent apoptosis”. Also, the GI50 in data set [4] (cell lines derived from T-cell lymphomas or leukemias) is 2.4 to 4 µM.

With `O=C(CCCCCCC(=O)Nc1ccccc1)NO` [vorinostat], the “Rad50 and MRE11 protein levels” value in data set [5] is reported as “downregulates”.
